Assay results as given in paper PMC4445002, “Efficient inhibition of tumor angiogenesis and growth by a synthetic peptide blocking S100A4-methionine aminopeptidase 2 interaction” (Molecular Therapy. Methods & Clinical Development, 2015).
Blank lines part the entries; values can stand above or below the compound they belong to.

What was measured:
[1] = system: S100A4-MetAP2 interaction; experiment: In vitro GST pull-down binding assay S100A4-MetAP2
S100A4 [2] = experiment: Surface plasmon resonance binding to GST-S100A4; settings: Biacore 3000, captured GST-S100A4, SBD 1 mmol/l, HBS-P pH 7.4, with or without 1 mmol/l CaCl2, 25 °C, duplicated experiment
Source text: The binding of the SBD peptide to S100A4 was examined by Surface plasmon resonance (SPR) with a Biacore 3000 biosensor and GST Capture kit (GE Healthcare, Little Chalfont, UK) according to the manufacturer’s instructions. Goat anti-GST antibody was immobilized on two flow cells of the sensor chip (CM-5) using a standard amine coupling procedure, and then recombinant GST-S100A4 or GST as a negative control was captured. The SBD peptide (1 mmol/l) in HBS-P running buffer (10 mmol/l Hepes, pH 7.4, 150 mmol/l NaCl, 0.005% P20) in the presence or absence of 1 mmol/l CaCl2 was injected over two flow cells of the chip at a flow rate of 10 ml/minute at 25 °C for 5 minutes. The response from the control surface was subtracted, and the data plotted as Resonance Units (RU).

MetAP2 [3] = system: MetAP2; design: method as in PMID 16790550, PMID 22229417; settings: cited from earlier work
ERK1/2 = system: ERK1/2; design: method as in PMID 19716858; settings: cited from earlier work
MetAP2 [4] = settings: cited from earlier work
S100A4 [5] = experiment: FRET acceptor-photobleaching analysis in live HeLa cells; format: binding; settings: ECFP fusion cotransfected with EYFP-S100A4, acceptor photobleaching, n = 8–11, **P < 0.01, ***P < 0.001

Compound: methionine aminopeptidase 2 [MetAP2]
- binding of MetAP2 to S100A4 (GST pull-down) ([1]; [35S]MetAP2, GST/S100A4, 1 mmol/l CaCl2 or 1 mmol/l EDTA): S100A4 bound to MetAP2 in a Ca^2+-dependent manner

- binding to S100A4 (SPR) (S100A4 [2]): occurred only in the presence of Ca^2+
Compound: SBD: 60 amino acid residues spanning from Arg170 to Ala229 of MetAP2 (REAAEAHRQVRKYVMSWIKPGMTMIEICEKLEDCSRKLIKENGLNAGLAFPTGCSLNNCA)
- inhibition of S100A4-MetAP2 interaction (GST pull-down) ([1]; [35S]MetAP2, GST/S100A4, 1 mmol/l CaCl2, peptide at 25-fold molar excess of MetAP2): efficiently blocked the interaction between S100A4 and MetAP2

Compound: CO[C@@H]1[C@H](OC(=O)/C=C/C=C/C=C/C=C/C(=O)O)CC[C@]2(CO2)[C@H]1[C@@]1(C)O[C@@H]1CC=C(C)C [Fumagillin, fumagillin]
- antiangiogenic activity (MetAP2 [3]): potent antiangiogenic agents
- effect on ERK1/2 activity and cell growth (ERK1/2): inhibition of the activity of ERK1/2 and cell growth
- effect on MetAP2 auto-proteolytic activity (MetAP2 [4]): inhibits MetAP2’s auto-proteolytic activity
- effect on MetAP2 turnover rate (MetAP2 [4]): decreases its turnover rate

Compound: ECFP-SBD: SBD sequence subcloned into pECFP-C1, expressed in HeLa cells (REAAEAHRQVRKYVMSWIKPGMTMIEICEKLEDCSRKLIKENGLNAGLAFPTGCSLNNCA; left off: ECFP, end not stated, kept)
- FRET efficiency with EYFP-S100A4 vs negative controls (S100A4 [5]): significantly higher than those in respective negative controls

Compound: ECFP-CBD: CBD sequence subcloned into pECFP-C1, expressed in HeLa cells (TMIEICEKLEDCSRKLIKENGLNAGLAFPTGCSLNNCA; left off: ECFP, end not stated, kept)
- FRET efficiency with EYFP-S100A4 vs negative controls (S100A4 [5]): but not for ECFP-CBD/EYFP-S100A4 (orange bars), were significantly higher than those in respective negative controls

Compound: CO[C@@H]1[C@H](OC(=O)NC(=O)CCl)CC[C@]2(CO2)[C@H]1[C@@]1(C)O[C@@H]1CC=C(C)C [TNP-470]
- antiangiogenic activity (MetAP2 [3]): potent antiangiogenic agents

Compound: ECFP-NBD: NBD sequence subcloned into pECFP-C1, expressed in HeLa cells (REAAEAHRQVRKYVMSWIKPGMTMIEICEKLEDCSRKLI; left off: ECFP, end not stated, kept)
- FRET efficiency with EYFP-S100A4 vs negative controls (S100A4 [5]): significantly higher than those in respective negative controls
